26 molecules from ChEMBL document CHEMBL1122021, “Angiotensin-converting enzyme inhibitors: importance of the amide carbonyl of mercaptoacyl amino acids for hydrogen bonding to the enzyme” (J Med Chem, 1982) can be followed below.

The target in the first experiment is T1, Angiotensin-converting enzyme (Oryctolagus cuniculus, UniProt P12822).
T1 sequence (P12822 whole entry): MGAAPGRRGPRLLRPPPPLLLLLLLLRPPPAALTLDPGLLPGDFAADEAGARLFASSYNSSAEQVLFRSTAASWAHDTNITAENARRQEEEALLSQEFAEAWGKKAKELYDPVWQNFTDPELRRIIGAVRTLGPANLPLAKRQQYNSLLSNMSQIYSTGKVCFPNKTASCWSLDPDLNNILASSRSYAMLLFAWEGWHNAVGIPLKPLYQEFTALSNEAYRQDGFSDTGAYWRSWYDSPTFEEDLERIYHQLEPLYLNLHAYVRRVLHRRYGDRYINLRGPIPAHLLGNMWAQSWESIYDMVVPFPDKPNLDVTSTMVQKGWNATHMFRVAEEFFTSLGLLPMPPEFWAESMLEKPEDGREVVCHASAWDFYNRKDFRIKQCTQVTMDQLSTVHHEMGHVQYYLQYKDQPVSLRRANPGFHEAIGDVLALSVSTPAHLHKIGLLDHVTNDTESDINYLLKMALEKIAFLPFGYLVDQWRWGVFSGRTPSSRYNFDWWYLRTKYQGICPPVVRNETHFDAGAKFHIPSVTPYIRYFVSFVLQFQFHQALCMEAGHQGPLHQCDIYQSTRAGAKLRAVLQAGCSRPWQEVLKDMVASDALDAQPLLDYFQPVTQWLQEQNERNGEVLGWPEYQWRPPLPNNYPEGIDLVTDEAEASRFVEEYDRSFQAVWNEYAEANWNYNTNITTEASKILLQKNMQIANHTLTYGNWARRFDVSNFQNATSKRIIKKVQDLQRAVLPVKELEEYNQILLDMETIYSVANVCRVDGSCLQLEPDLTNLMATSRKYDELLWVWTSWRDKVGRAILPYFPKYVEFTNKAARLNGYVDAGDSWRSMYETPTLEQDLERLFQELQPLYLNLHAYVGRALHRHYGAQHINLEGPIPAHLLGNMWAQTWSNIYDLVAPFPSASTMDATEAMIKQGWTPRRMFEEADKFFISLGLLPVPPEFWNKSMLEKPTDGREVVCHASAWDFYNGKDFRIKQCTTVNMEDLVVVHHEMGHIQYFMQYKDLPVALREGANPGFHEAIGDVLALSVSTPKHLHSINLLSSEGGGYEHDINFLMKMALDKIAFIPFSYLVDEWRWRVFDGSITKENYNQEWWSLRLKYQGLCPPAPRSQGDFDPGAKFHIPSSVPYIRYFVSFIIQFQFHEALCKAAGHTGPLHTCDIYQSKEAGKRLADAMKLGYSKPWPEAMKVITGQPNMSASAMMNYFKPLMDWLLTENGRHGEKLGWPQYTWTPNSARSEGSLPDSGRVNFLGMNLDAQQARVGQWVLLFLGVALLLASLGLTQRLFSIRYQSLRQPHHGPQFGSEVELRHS
As to the kind of experiment: In vitro inhibitory activity against Angiotensin I converting enzyme in rabbit lung, using hippuryl-histidyl-leucine as substrate.
Settings: not given
In turn, `CN(C(=O)CCS)[C@@H](Cc1ccccc1)C(=O)O` showed an IC50 of 31 µM.
The molecule `C[C@H](CS)C(=O)N1C(=O)CC[C@H]1C(=O)O` registered an IC50 of 0.009 µM.

The same experiment, now with this note: read-out: I50.
`O=C(O)CCC(=O)CCS`: the IC50 was 11 µM.
Same read-out and setting: next, `O=C(O)CCC(O)CCS` (stereo unspecified): 1200 µM; `CN(CC(=O)O)C(=O)CCS`: 3 µM.
Same read-out and setting: then `O=C(CCS)[C@H]1CC[C@H]1C(=O)O`, with 34 µM; and `O=C(O)CNC(=O)CCS`, with 2.8 µM.
On the same count and under the same terms, next, `O=C(O)[C@@H]1CCCC[C@H]1C(=O)CCS`: 1.7 µM; `O=C(O)[C@@H]1CCC(=O)N1CCCS`: 640 µM.
Consider `O=C(O)[C@@H]1CCN1C(=O)CCS`, for which the IC50 was 1.7 µM.
Consider `O=C(CCS)O[C@@H](Cc1ccccc1)C(=O)O`, for which the IC50 was 0.7 µM.
Take `O=C(O)[C@@H]1CCCN1CCCS`: the IC50 was found to be 240 µM.
With `O=C(O)[C@@H]1CCC[C@H]1C(=O)CCS`, the IC50 came out at 2.4 µM.
On to `O=C(CCS)N[C@@H](Cc1ccccc1)C(=O)O`, for which the IC50 came to 0.85 µM.
Same read-out and setting: then `O=C(O)[C@@H]1CC[C@H]1C(=O)CCS`, with 37 µM.
Still for that read-out and setting: next, `O=C(O)C/C=C/CCS`: 720 µM; `O=C(O)[C@@H]1CCCCN1C(=O)CCS`: 0.46 µM; `O=C(O)[C@@H]1CCCN1S(=O)(=O)CCS`: 11 µM.
Same read-out and setting: then `O=C(CCS)[C@H]1CCCC[C@H]1C(=O)O`, with 1.4 µM; and `C[C@H](CS)C(=O)[C@@H]1CCCC[C@H]1C(=O)O`, with 0.74 µM; and `O=C(O)CCCCCS`, with 1100 µM.
Turning to `O=C(O)[C@@H]1CCCN1C(=O)CCS`, the IC50 is 0.25 µM.
Still for that read-out and setting: then `O=C(O)CN1CCCC(CS)C1=O` (stereo unspecified), with 10 µM; and `C[C@@H](CS)C(=O)[C@@H]1CCCC[C@H]1C(=O)O`, with 3.7 µM; and `C[C@H](CS)C(=O)N1CCCC[C@H]1C(=O)O`, with 0.13 µM.
The same measure, in the same setting: then `O=C(O)CC(=O)NCCS`, with 580 µM.
